In patent US20260257992A1, “AGONISTS OF SMALL HETERODIMER PARTNER FOR CANCER THERAPY” (THE BOARD OF TRUSTEES OF THE UNIVERSITY OF ILLINOIS, priority 2023, published 2026):

What was measured:
Treg expansion = Treg expansion in co-culture with compound-treated BMDMs (macrophages); type: cell-based, mouse; parameters: key to Treg expansion macrophages: ✓: using strict cutoffs with respect to DSHN for passing each metric; X: using strict cutoffs with respect to DSHN for passing each metric; conditions: for Treg expansion after BMDM pretreatment and washout: BMDMs pretreated, washed before co-culture with T cells; for Treg expansion, co-culture with treated BMDMs: dose response
Protocol: Preparation of Bone Marrow-Derived Macrophages (BMDMs) and Dendritic Cells. Bone marrow cells were collected from mouse tibia and femur. Cells were passed through 70-micron cell strainer and subsequently cultured 10 mL complete RPMI media supplemented with 20 ng/mL of recombinant murine M-CSF (576406; BioLegend, 315-02 PeproTech). On day 3, additional 5 ml of the complete media was added. On day 7, media was replaced. BMDMs were harvested on day 10 using cell stripper solution for further experiments. Dendritic cells were isolated from the spleens of wildtype, using mouse CD11c UltraPure MicroBeads (130-125-835; Miltenyi Biotec) according to the manufacturer's instructions) and cultured in RPMI medium supplemented with 10% heat-inactivated charcoal-stripped FBS, 50 μM β-mercaptoethanol, 1% sodium pyruvate, 1% nonessential amino acids, % penicillin/streptomycin, and 1% Glutamax.
In vitro Treg expansion assays. T cells were cultured in RPMI medium supplemented with 10% heat-inactivated charcoal-stripped FBS, 50 μM β-mercaptoethanol (Gibco), 1% sodium pyruvate, 1% nonessential amino acids, % penicillin/streptomycin, and 1% Glutamax (Gibco). Naïve CD4^+ T cells were isolated from the spleens of wildtype and OT-II, using Naive CD4^+ T Cell Isolation Kit (Miltenyi Biotec according to the manufacturer's instructions). T cells were labeled with the vital dye CFSE (BioLegend) or Cell Trace Violet (ThermoFisher) according to the manufacturer's instructions. For wildtype Treg expansion in presence of antigen presenting cells, naïve CD4^+ T cells were co-cultured with APC at indicated ratio in the presence of 0.5 μg/mL (anti-CD3 BioLegend), 0.5 ng/mL TGFβ (BioLegend) and 0.5 ng/ml IL-2 (BioLegend) for 72 hr at 37° C. For OT-II Treg expansion, OTII naïve CD4^+ T cells from OT-II mice were activated by antigen presentation by culturing BMDMs were primed with 10 μg/mL OVA323-339 (Bachem) and 0.5 μg/mL LPS (Sigma). naïve CD4+ T cells from OTII mice were co-cultured with primed APC at indicated ratio for 72 hrs. After 72 hrs of culture, cells were transferred into V-bottom plates (BD), pelleted by centrifugation and incubated with antibody staining mix containing Ghost Dye™ Red 780 viability dye diluted in PBS for 15 minutes at 4° C. Cell surface antigens were stained for 15 minutes at 4° C. with an antibody staining mix containing Ghost Dye™ Red 780 viability dye diluted in PBS. Cells were fixed and permeabilized with BD Cytofix/Cytoperm™ for 20 minutes at 4° C. Antibodies against intracellular antigens were diluted in 1×BD Perm/Wash™ buffer and cells were stained for 30 minutes at 4° C. Cytometry data were acquired on a LSRII, Fortessa, Symphony A1 (Becton Dickinson, NJ). Foxp3 induction was assessed by expression of FOXP3.

full length NR0B2 = target: T1, full length NR0B2 (Homo sapiens, UniProt Q15466); assay: Thermal shift assay with recombinant NR0B2; type: binding; conditions: 1 mM ligand, 6 μM purified NR0B2; apo/unliganded 46.74±0.22
T1 construct: A gene containing a hexa-His-TEV fusion with full length NR0B2 in pET21(a)+ was transformed in E. coli BL21(DE3); hexa-His with TEV site; made in house; host or cells: E. coli BL21(DE3)
T1 sequence (Q15466 1-257): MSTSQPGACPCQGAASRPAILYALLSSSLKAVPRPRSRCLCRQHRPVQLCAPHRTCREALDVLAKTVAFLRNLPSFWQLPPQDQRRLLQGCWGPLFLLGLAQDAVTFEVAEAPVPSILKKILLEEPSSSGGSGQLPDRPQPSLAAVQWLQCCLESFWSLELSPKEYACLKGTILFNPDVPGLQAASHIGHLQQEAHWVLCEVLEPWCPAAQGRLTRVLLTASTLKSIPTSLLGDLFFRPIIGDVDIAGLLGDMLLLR
Protocol: Protein expression, purification, and thermal shift assay. A gene containing a hexa-His-TEV fusion with full length NR0B2 in pET21(a)+ was transformed in E. coli BL21(DE3). A single colony was used to inoculate a 100 mL starter culture of LB broth containing 100 μg/mL ampicillin, which was allowed to grow overnight with shaking at 37° C. This starter culture was used to inoculate flasks containing autoinducing media, which were grown at 37° C. with shaking until they reached an OD^600 of 0.8. Subsequently, the temperature was reduced to 16° C. and cells were allowed to grow for another 24 hours. After harvesting by centrifugation, cells were resuspended at 15 mL/g cell paste in a buffer comprised of 25 mM HEPES pH 8.0, 250 mM NaCl, 20 mM imidazole pH 8.0, 5% glycerol, 0.5 mM TCEP, and Roche EDTA-free protease inhibitor cocktail. Cells were lysed by sonication then centrifuged at 18,000×g for 30 minutes to remove insoluble material. The lysate was loaded onto a gravity flow Ni-NTA column, washed with 5 column volumes (CVs) of resuspension buffer, and protein was eluted using the resuspension buffer supplemented with 500 mM imidazole. Collected protein was dialyzed overnight in the resuspension buffer without imidazole then concentrated and purified on a Superdex 200 HiLoad 200 16/600 size exclusion column. […]

Structure (SMILES)	Treg expansion after BMDM pretreatment and washout (Treg expansion)	Treg expansion, co-culture with treated BMDMs (Treg expansion)	NR0B2 thermal melt temperature (TM) (full length NR0B2) [°C]	Treg expansion macrophages (Treg expansion; pass/fail with respect to DSHN)
CCN(CC)S(=O)(=O)c1cccc2cc(C(=O)O)c(O)cc12 [DSHN, reference compound]	not effective at reducing Treg expansion	reduced subsequent Treg expansion in a dose related manner	46.34±0.51	–
CCN(CC)S(=O)(=O)c1cccc2cc(C(=O)OC)c(O)cc12 [DSHN-OMe, Methyl 5-(N,N-diethylsulfamoyl)-3-hydroxy-2-naphthoate]	decreased Treg expansion	elicited a reduction in Treg expansion with a lower dose, and had a larger biological maximum	46.92±0.17	✓
